Source: publication PMC10141607, “Powerful Avidity with a Limited Valency for Virus-Attachment Blockers on DC-SIGN: Combining Chelation and Statistical Rebinding with Structural Plasticity of the Receptor” (ACS Central Science, 2023)
“And” between values parts separate entries of the source, which are not always exact repeats. Equal values may be shown once.

What was measured:
[1] = biological target: T1, DC-SIGN ECD oriented surface (Homo sapiens, UniProt Q9NNX6); assay type: binding; conditions: for Kd: SPR direct interaction on DC-SIGN ECD oriented surface, 25 mM Tris pH 8, 150 mM NaCl, 4 mM CaCl2, 4% DMSO, read-out: KD app; for ß factor (valency-corrected enhancement factor): from SPR KDapp, compound 3.1 as monovalent reference
T1 construct: made in house
T1 sequence (Q9NNX6 59-404 limits assumed): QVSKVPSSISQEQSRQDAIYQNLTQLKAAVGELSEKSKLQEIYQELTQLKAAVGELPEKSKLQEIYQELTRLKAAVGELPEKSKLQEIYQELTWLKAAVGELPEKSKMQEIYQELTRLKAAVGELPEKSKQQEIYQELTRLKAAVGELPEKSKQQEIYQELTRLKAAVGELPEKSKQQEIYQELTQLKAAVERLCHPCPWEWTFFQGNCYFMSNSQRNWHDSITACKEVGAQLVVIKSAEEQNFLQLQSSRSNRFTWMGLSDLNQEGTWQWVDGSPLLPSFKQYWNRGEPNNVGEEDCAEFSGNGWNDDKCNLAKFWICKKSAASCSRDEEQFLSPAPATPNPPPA

DC-SIGN ECD = test system: DC-SIGN ECD; parameters: method as in PMID 25648900; conditions: SPR inhibition study (competition experiment); cited from earlier work
DC-SIGN ECD tetramer = biological target: T2, DC-SIGN ECD tetramer (Homo sapiens, UniProt Q9NNX6); assay: Isothermal titration calorimetry (ITC); assay type: binding; conditions: 25°C
T2 sequence (Q9NNX6 59-404 limits assumed): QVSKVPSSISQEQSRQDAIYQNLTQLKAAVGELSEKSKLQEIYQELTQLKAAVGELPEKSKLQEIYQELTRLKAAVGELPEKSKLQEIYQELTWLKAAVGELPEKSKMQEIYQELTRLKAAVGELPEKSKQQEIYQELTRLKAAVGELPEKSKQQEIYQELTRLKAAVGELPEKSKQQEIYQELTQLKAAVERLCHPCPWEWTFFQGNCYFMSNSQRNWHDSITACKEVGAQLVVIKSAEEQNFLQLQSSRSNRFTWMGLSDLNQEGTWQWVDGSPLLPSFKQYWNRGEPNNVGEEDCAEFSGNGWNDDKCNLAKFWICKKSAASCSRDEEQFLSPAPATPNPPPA
Protocol: Thermodynamic parameters of multivalent binding as measured by isothermal titration calorimetry (ITC) were analyzed for compounds 3.2 and 3.6. Usually, ITC should provide, among other parameters, a “real” KD value; however, here we prefer to refer to a KDapp. Indeed, in these ITC experiments, we are not evaluating an affinity (a 1:1 unitary interaction, defined by KD) but rather an avidity phenomenon resulting from cumulative unitary bonds (each of whose individual contributions to the overall avidity cannot be deconvoluted). In addition, this avidity results from several multivalent modalities, a population of binding modes. Thus, the use of KDapp, instead of KD, emphasizes that the values determined here are the result of a complex phenomenon. The ITC binding analysis (Figure 3 and Table 2) is fully in agreement with the other biophysical techniques (see Table 2 for SPR and Figure 2C for FP of 3.6) with KDapp values equal to 58 ± 1 nM and 1.1 ± 0.2 μM for compounds 3.6 and 3.2, respectively. […] Increasing the local concentration close to the site is a major source of avidity generation. The ΔH difference is offset by a more unfavorable entropy for 3.6, which probably originates from the loss of degrees of freedom of construct extremities, six versus two, upon binding. Hydrophobic effect may also contribute, since the hydrophobic rod is shielded better from the solvent by the six units of ligand 1 in 3.6([35]) and exposing the hydrophobic parts and ordering the solvent around them is entropically costly. Combining the enthalpy and entropy effects, the ΔG for the hexavalent ligand improves by 10 kJ/mol. It is interesting to note that a stoichiometry of 1 for the complex with 3.6 is observed, supporting again the chelation mode. On the contrary, a stoichiometry n = 1.5 is observed for 3.2, with a KDapp in the μM range, which is compatible with a mixed chelation and clustering binding mode. […]
This graph is supplementary evidence of the multivalent binding, here chelate binding mode for 3.2, that occur over a DC-SIGN oriented surface.
3. Isothermal titration calorimetric analysis
ITC experiments were performed at 25°C using TA Instrument Nano Isothermal Titration Calorimeter Low volume (Nano ITC LV). Compound 3.6, 3.2 and DC-SIGN ECD were prepared in 25 mM Tris pH 8; 150 mM NaCl, 4 mM CaCl2, 4 % DMSO. Compounds (30 µM of 3.6 or 375 µM of 3.2) were stepwise injected (1.03 µL) to 190 µL of DC-SIGN ECD tetramer (respectively, 30 µM or 48.75 µM) in the cell. The blank titrations (compounds to buffer) were done for subtraction of dilution heat from the integrated data. […]
The free energy changes (∆G) and entropy (∆S) were calculated using equation (2): […]

[2] = biological target: T3, DC-SIGN extracellular domain (human), Q9NNX6; assay: AUC; sedimentation velocity; DC-SIGN tetramer 4 uM alone (same peak with 5 nM to 500 nM compound 3.6); monomers to tetramer; conditions: remark: other sources report otherwise
T3 chain: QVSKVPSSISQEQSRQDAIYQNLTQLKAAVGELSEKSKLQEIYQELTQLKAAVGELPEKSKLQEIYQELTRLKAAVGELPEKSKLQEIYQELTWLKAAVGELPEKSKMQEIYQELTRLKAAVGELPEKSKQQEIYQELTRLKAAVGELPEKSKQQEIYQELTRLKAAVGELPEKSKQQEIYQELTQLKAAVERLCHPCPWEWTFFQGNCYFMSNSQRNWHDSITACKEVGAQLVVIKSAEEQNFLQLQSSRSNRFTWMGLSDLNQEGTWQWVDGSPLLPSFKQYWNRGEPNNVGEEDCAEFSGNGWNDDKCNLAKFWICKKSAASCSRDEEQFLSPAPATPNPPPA

In the case of `O=C(NCc1ccc(CO)cc1)C1CC(OCCn2cc(COCC(COCCOCCn3cc(-c4cc(OCCOCCO)c(-c5cn(CCOCCOCC(COCc6cn(CCOC7CC(C(=O)NCc8ccc(CO)cc8)C(C(=O)NCc8ccc(CO)cc8)CC7OC7OC(CO)C(O)C(O)C7O)nn6)(COCc6cn(CCOC7CC(C(=O)NCc8ccc(CO)cc8)C(C(=O)NCc8ccc(CO)cc8)CC7OC7OC(CO)C(O)C(O)C7O)nn6)COCc6cn(CCOC7CC(C(=O)NCc8ccc(CO)cc8)C(C(=O)NCc8ccc(CO)cc8)CC7OC7OC(CO)C(O)C(O)C7O)nn6)nn5)cc4OCCOCCO)nn3)(COCc3cn(CCOC4CC(C(=O)NCc5ccc(CO)cc5)C(C(=O)NCc5ccc(CO)cc5)CC4OC4OC(CO)C(O)C(O)C4O)nn3)COCc3cn(CCOC4CC(C(=O)NCc5ccc(CO)cc5)C(C(=O)NCc5ccc(CO)cc5)CC4OC4OC(CO)C(O)C(O)C4O)nn3)nn2)C(OC2OC(CO)C(O)C(O)C2O)CC1C(=O)NCc1ccc(CO)cc1` (stereo not shown) [Compound 1.6], the Kd [1] is reported as 170 nM and 172 nM and the “ß factor (valency-corrected enhancement factor)” value (shortened to “ß factor”) [1] is reported as 38.

For `[N-]=[N+]=NCCOC1CC(C(=O)NCc2ccc(CO)cc2)C(C(=O)NCc2ccc(CO)cc2)CC1OC1OC(CO)C(O)C(O)C1O` (stereo not shown) [Compound 1], the IC50 (DC-SIGN ECD) is given as 270000 nM.

With `O=C(NCc1ccc(CO)cc1)C1CC(OCCn2cc(COCC(COCCOCCn3cc(-c4cc(OCCOCCO)c(C#Cc5cc(OCCOCCO)c(-c6cn(CCOCCOCC(COCc7cn(CCOC8CC(C(=O)NCc9ccc(CO)cc9)C(C(=O)NCc9ccc(CO)cc9)CC8OC8OC(CO)C(O)C(O)C8O)nn7)(COCc7cn(CCOC8CC(C(=O)NCc9ccc(CO)cc9)C(C(=O)NCc9ccc(CO)cc9)CC8OC8OC(CO)C(O)C(O)C8O)nn7)COCc7cn(CCOC8CC(C(=O)NCc9ccc(CO)cc9)C(C(=O)NCc9ccc(CO)cc9)CC8OC8OC(CO)C(O)C(O)C8O)nn7)nn6)cc5OCCOCCO)cc4OCCOCCO)nn3)(COCc3cn(CCOC4CC(C(=O)NCc5ccc(CO)cc5)C(C(=O)NCc5ccc(CO)cc5)CC4OC4OC(CO)C(O)C(O)C4O)nn3)COCc3cn(CCOC4CC(C(=O)NCc5ccc(CO)cc5)C(C(=O)NCc5ccc(CO)cc5)CC4OC4OC(CO)C(O)C(O)C4O)nn3)nn2)C(OC2OC(CO)C(O)C(O)C2O)CC1C(=O)NCc1ccc(CO)cc1` (stereo not shown) [Compound 2.6] the Kd [1] was 140 ± 8 nM and the “ß factor” value [1] was 47.

For `O=C(NCc1ccc(CO)cc1)C1CC(OCCn2cc(-c3cc(OCCOCCO)c(C#Cc4cc(OCCOCCO)c(C#Cc5cc(OCCOCCO)c(-c6cn(CCOC7CC(C(=O)NCc8ccc(CO)cc8)C(C(=O)NCc8ccc(CO)cc8)CC7OC7OC(CO)C(O)C(O)C7O)nn6)cc5OCCOCCO)cc4OCCOCCO)cc3OCCOCCO)nn2)C(OC2OC(CO)C(O)C(O)C2O)CC1C(=O)NCc1ccc(CO)cc1` (stereo not shown) [Compound 3.2], the Kd [1] is listed as 2400 nM and 2440 nM, the “ß factor” value [1] is listed as 8 and the IC50 (DC-SIGN ECD) is listed as 8000 nM. The “n (stoichiometry)” value (DC-SIGN ECD tetramer) was 1.5 and 1.56 ± 0.04, the ΔH (DC-SIGN ECD tetramer) was “–85.27 ± 4.48 kJ/mol” and the TΔS (DC-SIGN ECD tetramer; calculated) was “–54.4 kJ/mol”. For the same molecule, the Kd (DC-SIGN ECD tetramer; one-site binding model, read-out: KDapp) was 1100 ± 200 nM.

B1: DC-SIGN extracellular domain, Q9NNX6 59-404 (domain or fragment)
chain: QVSKVPSSISQEQSRQDAIYQNLTQLKAAVGELSEKSKLQEIYQELTQLKAAVGELPEKSKLQEIYQELTRLKAAVGELPEKSKLQEIYQELTWLKAAVGELPEKSKMQEIYQELTRLKAAVGELPEKSKQQEIYQELTRLKAAVGELPEKSKQQEIYQELTRLKAAVGELPEKSKQQEIYQELTQLKAAVERLCHPCPWEWTFFQGNCYFMSNSQRNWHDSITACKEVGAQLVVIKSAEEQNFLQLQSSRSNRFTWMGLSDLNQEGTWQWVDGSPLLPSFKQYWNRGEPNNVGEEDCAEFSGNGWNDDKCNLAKFWICKKSAASCSRDEEQFLSPAPATPNPPPA
Molecule B1 has a stoichiometry N [2] of 4.
